Results: patent US20060079550A1, “Amino acid derivatives useful for the treatment of alzheimer's disease” (priority 2001, published 2006)

What follows are molecules tested against aspartyl proteases, in particular, beta-secretase (assay: Ki of the compounds listed in Tables 1 and 2 (no method described)). Conditions: Table 1, compounds of formula Ia, W is -(CH2)n-.
Assay type: biochemical

Structure (SMILES)	Ki [nM]
Cc1ccc(S(=O)(=O)N(CC(C)C)C(CCCNC(=O)OCC2c3ccccc3-c3ccccc32)C(=O)O)cc1 (racemic) [Compound No. 6, Nα-isobutyl-Nα-(4-methylbenzenesulfonyl)-Nδ-(9-fluorenylmethoxycarbonyl)-DL-ornithine]	180
O=C(O)[C@H](CCCCNS(=O)(=O)c1ccc(Br)cc1)NS(=O)(=O)c1ccc(Br)cc1 [Compound No. 17, Nα,Nε-di-(4-bromobenzenesulfonyl)-L-lysine]	7700
COc1ccc(CCC(=O)NCCCC[C@@H](C(=O)O)N(CC(C)C)S(=O)(=O)c2ccc(N)cc2)cc1 [Compound No. 120, Nα-isobutyl-Nα-(4-aminobenzenesulfonyl)-Nε-(4-methoxydihydrocinnamoyl)-L-lysine]	12.4
O=C(Cc1c[nH]c2ccccc12)N[C@@H](CCCCNS(=O)(=O)c1ccc(Br)cc1)C(=O)O [Compound No. 29, Nα-(3-indoleacetyl)-Nε-(4-bromobenzenesulfonyl)-L-lysine]	10500
O=C(N[C@H](CO)CCCCNS(=O)(=O)c1ccc(Br)cc1)OCC1c2ccccc2-c2ccccc21 [Compound No. 22, (2S)-(9-fluorenylmethoxycarbonylamino)-6-(4-bromobenzenesulfonylamino)-1-hexanol]	> 6000
COc1ccccc1CCC(=O)NCCCC[C@@H](C(=O)O)N(CC(C)C)S(=O)(=O)c1ccc(N)cc1 [Compound No. 157, Nα-isobutyl-Nα-(4-aminobenzenesulfonyl)-Nε-(2-methoxydihydrocinnamoyl)-L-lysine]	18.9
CC(C)CN(C(CCCCNC(=O)OCC1c2ccccc2-c2ccccc21)C(=O)O)S(=O)(=O)c1ccc(Cl)cc1 (racemic) [Compound No. 1, Nα-isobutyl-Nα-(4-chlorobenzenesulfonyl)-Nε-(9-fluorenylmethoxycarbonyl)-DL-lysine]	20.5

Now from value to molecule:

Ki [nM]	Structure (SMILES)
16000	Nc1ccccc1S(=O)(=O)N[C@@H](CCCCNC(=O)OCC1c2ccccc2-c2ccccc21)C(=O)O [Compound No. 105, Nα-(2-aminobenzenesulfonyl)-Nε-(9-fluorenylmethoxycarbonyl)-L-lysine]
> 300	Cc1ccc(S(=O)(=O)N(CC(C)C)C(CCCCN(CC(C)C)C(=O)CCc2ccccc2)C(=O)O)cc1 (racemic) [Compound No. 159, Nα,Nε-diisobutyl-Nα-(4-methylbenzenesulfonyl)-Nε-(3-phenylpropanoyl)-DL-lysine]
> 625	Cc1ccc(S(=O)(=O)N(CC(C)C)[C@@H](CCCCNC(=O)c2cc3ccccc3[nH]2)C(=O)O)cc1 [compound 88]
> 12500	O=C(NCCCC[C@H](NS(=O)(=O)c1ccccc1[N+](=O)[O-])C(=O)O)OCC1c2ccccc2-c2ccccc21 [Compound No. 70, Nα-(2-nitrobenzenesulfonyl)-Nε-(9-fluorenylmethoxycarbonyl)-L-lysine]
6.9	Cc1ccc(S(=O)(=O)N(CC(C)C)[C@@H](CCCCNC(=O)CCc2c[nH]c3ccccc23)C(=O)O)cc1 [compound 89]
4700	O=C(N[C@@H](CCCCNS(=O)(=O)c1ccc(Br)cc1)C(=O)O)C1c2ccccc2-c2ccccc21 [Compound No. 38, Nα-(9-fluorenecarbonyl)-Nε-(4-bromobenzenesulfonyl)-L-lysine]
> 1250	Cc1ccc(S(=O)(=O)N(CC(C)C)[C@@H](CCCCNC(=O)OCc2ccccc2)C(=O)OCc2ccccc2)cc1 [Compound No. 75, Nα-isobutyl-Nα-(4-methylbenzenesulfonyl)-Nε-benzyloxycarbonyl-L-lysine Benzyl Ester]
> 300	CC(C)CN([C@@H](CCCCNC(=O)CCc1ccccc1)C(=O)O)S(=O)(=O)c1ccc(N)cc1 [Compound No. 158, Nα-isobutyl-Nα-(4-aminobenzenesulfonyl)-Nε-dihydrocinnamoyl-L-lysine]
